# Test system: patients with idiopathic pulmonary fibrosis
# Assay: Phase 2 trial NCT04419506: biomarker analysis in blood plasma or serum (ELISA, Luminex; MMRM)
# Assay type: in vivo, human
# Protocol: Blood samples were collected from patients during the clinical phase 2 trial at baseline, at 2, 4, 8 and 12 weeks (after baseline) of the “Compound of formula A′ treatment arm” and of the “Placebo arm”, and blood plasma and/or blood serum was prepared according to methods known in the art.
# Fibrosis-related biomarkers were assessed in plasma or serum using ELISA or Luminex technologies. The changes in these fibrosis-related biomarkers at weeks 2, 4, 8 and 12 after baseline were analysed using mixed models with repeated measures (MMRM). The fold changes in the tested biomarkers over baseline over time were then compared between patients of the of the “Compound of formula A′ treatment arm” and patients of the “Placebo arm”.
# Biomarker values were only considered valid up to +2 days for CRP and up to +7 days after last drug intake for all other proteins.
# At MLM (MLM Medical Labs GmbH, Mönchengladbach, Germany, www.mlm-labs.com) the biomarker KL-6 (Krebs von den Lungen) was measured using CLEIA Test kits (Lumipulse® G KL-6 Immunoreaction Cartridges) from Fujirebio (www.fujirebio.com) and a Lumipulse G1200 system, the biomarker sICAM-1 was measured using an ECLIA assay (V-PLEX Plus Vascular Injury Panel 2 Human Kit) from Meso Scale Discovery (MSD) on the Meso QuickPlex SQ120 device, and the biomarker MMP-7 was measured using a Quantikine® ELISA assay (Human MMP-7/PARC Quantikine® ELISA kit) from R&D Systems on a TECAN Absorbance Reader, according to manufacturer's instructions.
# The biomarkers CA-125, CA19-9, COMP, CRP, E-selectin, sICAM-1, MMP-3, MMP-7, Prostasin, TIMP-1, and vWF were measured using validated microsphere-based immune-multiplexing assays using Luminex technology at MyriadRBM (Rules Based Medicine, a q2 solutions company, Austin, Texas, USA, www.rbm.q2labsolutions.com).
# The biomarker data as collected from the different treatment groups of the phase II trial have been analysed with regard to three different aspects: • 1. The biomarker data has been analysed with regard to the “pharmacodynamic potential” of each respective biomarker, that means the change from baseline (CfB) of the biomarker level over time during treatment with the compound of formula A′ has been analysed. […] The biomarker data has been analysed with regard to the “prognostic potential” of each respective biomarker, that means the level of biomarker at baseline vs. clinical outcome after 12 weeks (=the absolute FVC [mL] change from baseline at week 12 and the absolute change from baseline in Dlco % predicted at week 12) in the Placebo groups has been analysed which is disease-related and may be used to assess the progression of the disease (e.g. fast vs. slow progressors). • 3. The biomarker data has been analysed with regard to their “outcome-related potential” of each respective biomarker, that means the change from baseline (CfB) in biomarker level vs. the clinical outcomes after 12 weeks (=the absolute FVC [mL] change from baseline at week 12 and the absolute change from baseline in Dlco % predicted at week 12) in the compound of formula A′ treatment groups has been analysed. Hereby, a potential early prediction of both clinical endpoint and treatment effect may be achieved.
# [1] = AF-background, listed as Comp. A′
# [2] = Non-AF-background, listed as Comp. A′
smiles,measurement,setting,value
[O-][S@+]1CCc2nc(N3CCC(c4ncc(Cl)cn4)CC3)nc(NC3(CO)CCC3)c21 [Compound of formula A′],CRP: change of biomarker from baseline to Week 12 in Comp. A′ arm vs. Placebo arm,AF-background,increased
same,E-selectin: change of biomarker from baseline to Week 12 in Comp. A′ arm vs. Placebo arm,AF-background,decreased
same,KL-6: change of biomarker from baseline to Week 12 in Comp. A′ arm vs. Placebo arm,AF-background,decreased
same,"Matrilysin (MMP7, MLM): change of biomarker from baseline to Week 12 in Comp. A′ arm vs. Placebo arm",AF-background,decreased
same,Prostasin: change of biomarker from baseline to Week 12 in Comp. A′ arm vs. Placebo arm,AF-background,↓
same,SP-D: change of biomarker from baseline to Week 12 in Comp. A′ arm vs. Placebo arm,AF-background,decreased
same,"CA19.9 (U/mL): fold change from baseline to Week 4, adjusted mean","AF-background, blood, MMRM",0.987
same,"CA19.9 (U/mL): fold change from baseline to Week 12, adjusted mean","AF-background, blood, MMRM",0.914
same,"CA-125 (MUC-16) (U/mL): fold change from baseline to Week 4, adjusted mean","AF-background, blood, MMRM",1.030
same,"CA-125 (MUC-16) (U/mL): fold change from baseline to Week 12, adjusted mean","AF-background, blood, MMRM",1.067
same,"COMP (μg/L): fold change from baseline to Week 4, adjusted mean","AF-background, blood, MMRM",0.991
same,"COMP (μg/L): fold change from baseline to Week 12, adjusted mean","AF-background, blood, MMRM",1.023
same,"CRP (mg/L): fold change from baseline to Week 4, adjusted mean","AF-background, blood, MMRM",1.780
same,"CRP (mg/L): fold change from baseline to Week 12, adjusted mean","AF-background, blood, MMRM",1.545
same,"E-selectin (μg/L): fold change from baseline to Week 4, adjusted mean","AF-background, blood, MMRM",0.933
same,"E-selectin (μg/L): fold change from baseline to Week 12, adjusted mean","AF-background, blood, MMRM",0.936
same,"KL-6 (U/mL): fold change from baseline to Week 4, adjusted mean","AF-background, blood, MMRM",0.960
same,"KL-6 (U/mL): fold change from baseline to Week 12, adjusted mean","AF-background, blood, MMRM",0.923
same,"Matrilysin (μg/L) (MMP7, MLM): fold change from baseline to Week 4, adjusted mean","AF-background, blood, MMRM",0.941
same,"Matrilysin (μg/L) (MMP7, MLM): fold change from baseline to Week 12, adjusted mean","AF-background, blood, MMRM",0.981
same,"Prostasin (μg/L): fold change from baseline to Week 4, adjusted mean","AF-background, blood, MMRM",0.939
same,"Prostasin (μg/L): fold change from baseline to Week 12, adjusted mean","AF-background, blood, MMRM",0.933
same,"SP-D (μg/L): fold change from baseline to Week 4, adjusted mean","AF-background, blood, MMRM",0.879
same,"SP-D (μg/L): fold change from baseline to Week 12, adjusted mean","AF-background, blood, MMRM",0.894
same,"Stromelysin-1 MMP3) (μg/L): fold change from baseline to Week 4, adjusted mean","AF-background, blood, MMRM",1.063
same,"Stromelysin-1 MMP3) (μg/L): fold change from baseline to Week 12, adjusted mean","AF-background, blood, MMRM",1.056
same,"sICAM1 (RBM) (μg/L): fold change from baseline to Week 4, adjusted mean","AF-background, blood, MMRM",1.049
same,"sICAM1 (RBM) (μg/L): fold change from baseline to Week 12, adjusted mean","AF-background, blood, MMRM",1.069
same,"vWF (mg/L): fold change from baseline to Week 4, adjusted mean","AF-background, blood, MMRM",1.035
same,"vWF (mg/L): fold change from baseline to Week 12, adjusted mean","AF-background, blood, MMRM",0.964
same,CRP: change of biomarker from baseline to Week 12 in Comp. A′ arm vs. Placebo arm,[1],↑ (significant increase)
same,E-selectin: change of biomarker from baseline to Week 12 in Comp. A′ arm vs. Placebo arm,[1],↓
same,KL-6: change of biomarker from baseline to Week 12 in Comp. A′ arm vs. Placebo arm,[1],↓ (significant decrease)
same,"Matrilysin (MMP7, MLM): change of biomarker from baseline to Week 12 in Comp. A′ arm vs. Placebo arm",[1],↓
same,SP-D: change of biomarker from baseline to Week 12 in Comp. A′ arm vs. Placebo arm,[1],↓ (significant decrease)
same,CA19-9: change of biomarker from baseline to Week 12 in Comp. A′ arm vs. Placebo arm,Non-AF-background,↓
same,CA-125 (MUC-16): change of biomarker from baseline to Week 12 in Comp. A′ arm vs. Placebo arm,Non-AF-background,decreased
same,COMP: change of biomarker from baseline to Week 12 in Comp. A′ arm vs. Placebo arm,Non-AF-background,decreased
same,CRP: change of biomarker from baseline to Week 12 in Comp. A′ arm vs. Placebo arm,Non-AF-background,increased
same,E-selectin: change of biomarker from baseline to Week 12 in Comp. A′ arm vs. Placebo arm,Non-AF-background,decreased
same,KL-6: change of biomarker from baseline to Week 12 in Comp. A′ arm vs. Placebo arm,Non-AF-background,decreased
same,"Matrilysin (MMP7, MLM): change of biomarker from baseline to Week 12 in Comp. A′ arm vs. Placebo arm",Non-AF-background,decreased
same,Prostasin: change of biomarker from baseline to Week 12 in Comp. A′ arm vs. Placebo arm,Non-AF-background,decreased
same,SP-D: change of biomarker from baseline to Week 12 in Comp. A′ arm vs. Placebo arm,Non-AF-background,decreased
same,Stromelysin-1 (MMP3): change of biomarker from baseline to Week 12 in Comp. A′ arm vs. Placebo arm,Non-AF-background,↓
same,sICAM1 (RBM): change of biomarker from baseline to Week 12 in Comp. A′ arm vs. Placebo arm,Non-AF-background,basically the same
same,vWF: change of biomarker from baseline to Week 12 in Comp. A′ arm vs. Placebo arm,Non-AF-background,decreased
same,"CA19-9 (U/mL): fold change from baseline to Week 4, adjusted mean","Non-AF-background, blood, MMRM",0.901
same,"CA19-9 (U/mL): fold change from baseline to Week 12, adjusted mean","Non-AF-background, blood, MMRM",1.016
same,"CA-125 (MUC-16) (U/mL): fold change from baseline to Week 4, adjusted mean","Non-AF-background, blood, MMRM",0.956
same,"CA-125 (MUC-16) (U/mL): fold change from baseline to Week 12, adjusted mean","Non-AF-background, blood, MMRM",1.039
same,"COMP (μg/L): fold change from baseline to Week 4, adjusted mean","Non-AF-background, blood, MMRM",0.970
same,"COMP (μg/L): fold change from baseline to Week 12, adjusted mean","Non-AF-background, blood, MMRM",0.949
same,"CRP (mg/L): fold change from baseline to Week 4, adjusted mean","Non-AF-background, blood, MMRM",2.134
same,"CRP (mg/L): fold change from baseline to Week 12, adjusted mean","Non-AF-background, blood, MMRM",1.479
same,"E-selectin (μg/L): fold change from baseline to Week 4, adjusted mean","Non-AF-background, blood, MMRM",0.943
same,"E-selectin (μg/L): fold change from baseline to Week 12, adjusted mean","Non-AF-background, blood, MMRM",0.982
same,"KL-6 (U/mL): fold change from baseline to Week 4, adjusted mean","Non-AF-background, blood, MMRM",0.911
same,"KL-6 (U/mL): fold change from baseline to Week 12, adjusted mean","Non-AF-background, blood, MMRM",0.916
same,"Matrilysin (μg/L) (MMP7, MLM): fold change from baseline to Week 4, adjusted mean","Non-AF-background, blood, MMRM",0.908
same,"Matrilysin (μg/L) (MMP7, MLM): fold change from baseline to Week 12, adjusted mean","Non-AF-background, blood, MMRM",0.883
same,"Prostasin (μg/L): fold change from baseline to Week 4, adjusted mean","Non-AF-background, blood, MMRM",0.883
same,"Prostasin (μg/L): fold change from baseline to Week 12, adjusted mean","Non-AF-background, blood, MMRM",0.905
same,"SP-D (μg/L): fold change from baseline to Week 4, adjusted mean","Non-AF-background, blood, MMRM",0.833
same,"SP-D (μg/L): fold change from baseline to Week 12, adjusted mean","Non-AF-background, blood, MMRM",0.875
same,"Stromelysin-1 MMP3) (μg/L): fold change from baseline to Week 4, adjusted mean","Non-AF-background, blood, MMRM",0.963
same,"Stromelysin-1 MMP3) (μg/L): fold change from baseline to Week 12, adjusted mean","Non-AF-background, blood, MMRM",0.960
same,"sICAM1 (RBM) (μg/L): fold change from baseline to Week 4, adjusted mean","Non-AF-background, blood, MMRM",0.956
same,"sICAM1 (RBM) (μg/L): fold change from baseline to Week 12, adjusted mean","Non-AF-background, blood, MMRM",0.937
same,"vWF (μg/L) (mg/L): fold change from baseline to Week 4, adjusted mean","Non-AF-background, blood, MMRM",0.991
same,"vWF (μg/L) (mg/L): fold change from baseline to Week 12, adjusted mean","Non-AF-background, blood, MMRM",0.972
same,CA-125 (MUC-16): change of biomarker from baseline to Week 12 in Comp. A′ arm vs. Placebo arm,[2],↓ (minor decrease)
same,COMP: change of biomarker from baseline to Week 12 in Comp. A′ arm vs. Placebo arm,[2],↓
same,CRP: change of biomarker from baseline to Week 12 in Comp. A′ arm vs. Placebo arm,[2],↑ (significant increase)
same,E-selectin: change of biomarker from baseline to Week 12 in Comp. A′ arm vs. Placebo arm,[2],↓
same,KL-6: change of biomarker from baseline to Week 12 in Comp. A′ arm vs. Placebo arm,[2],↓ (significant decrease)
same,"Matrilysin (MMP7, MLM): change of biomarker from baseline to Week 12 in Comp. A′ arm vs. Placebo arm",[2],↓ (significant decrease)
same,Prostasin: change of biomarker from baseline to Week 12 in Comp. A′ arm vs. Placebo arm,[2],↓
same,SP-D: change of biomarker from baseline to Week 12 in Comp. A′ arm vs. Placebo arm,[2],↓ (significant decrease)
same,vWF: change of biomarker from baseline to Week 12 in Comp. A′ arm vs. Placebo arm,[2],↓
same,elevation of the CRP-levels,treatment groups regardless of background therapy,approximately 2 ×
